US5091539A, “Azolyl cycloalkanol derivatives and agricultural fungicides” (Shionogi & Co., Ltd., priority 1984, dated 1992)
Values after ≈ are worked out from the molar mass of the structure shown.

How the values were obtained:
[1] = tested on: Sphaerotheca fuliginea; assay: Control test to powdery mildew of cucumber (foliar and soil treatment); type: in vivo; conditions: for Foliar Treatment, Curative Effect / Foliar Treatment, Protective Effect / Soil Treatment, Protective Effect: index 0-10
Experimental: (1) Seeds of cucumber (Cultivar: Matsukaze) were sown in a pot of 9 cm in diameter and the pots were kept in a green house until the plant was grown for 2-3 leaf stage. The first leaf was sprayed with, (i) 3 ml each of solutions containing the test compound at the prescribed concetrations and dried by the air (foliar treatment). Inoculation of spore suspension of Sphaerotheca fuliginea by spraying was practised 2 days before the treatment (curative effect) or 1 day after the treatment (protective effect). Alternatively, (ii) 5 ml of the solution was applied at the root of the seedlings (soil treatment). The pots were kept in a greenhouse for 2 days and inoculation was practised in the same manner noted above. (iii) After sprayed with 3 ml of a solution of the test compound at a concentration of 125 ppm and dried by the air, the treated pots were set in a greenhouse. Untreated pots were placed next to the treated pots. Those treated and untreated plants were inoculated with spore suspension. Protective effect of the test compounds by vapor was thus checked. The effect was examined 14 days after the inoculation of the spores.
0: Disease sign is observed on the whole leaf.
3: Disease sign is observed on the leaf in about 50%.
5: Disease sign is observed on the leaf in about 30%.
7: Disease sign is observed on the leaf in about 20%.
9: a little disease sign is observed.
(§1) (1) Test methods and evaluation are the same as those in Tests 2, 4 and 6.

[2] = tested on: Rhizoctonia solani; assay: Control test to damping-off of cucumber (Rhizoctonia solani); type: in vivo; conditions: soil drench, 14 days
Experimental: (§2) (1) The fungus causing damping-off of cucumber seedlings, Rhizoctonia solani or Fusarium oxysporum was cultured on a wheat bran medium at 28° C. for 5 days, which was mixed with sterilized soil and cultured for 2 days to prepare the inoculum. Sterilized soil (150 g) was put into a pot of 9 cm in diameter. The surface of the spot was covered with the above inoculum. […] Twenty cucumber seeds (Cultivar: Matsukaze) were sown 2 days after. The pots were kept at 30°±2° C. for 14 days. The infection was observed 14 days after and disease degree and percent disease degree were obtained by setting an evaluation index for each disease sympton.
(§3) (2) Evaluation [formula] wherein a: number of seeds without germination b: number of seedlings showing damping-off c: number of wilted seedlings d: number of seedlings being a little brownish in cotyledons or at the bottom of the stem e: number of uninfected seedlings [formula] wherein a: number of seeds without germination or seedlings with damping-off b: number of wilted seedlings c: number of seedlings being a little brownish in cotyledons or at the bottom of the stem d: number of uninfected seedlings [formula]

[3] = tested on: Fusarium oxysporum; assay: Control test to damping-off of cucumber (Fusarium oxysporum); type: in vivo; conditions: 500 ppm, soil drench, 14 days
Experimental: as §2, §3

[4] = tested on: Monilinia fructicola; assay: Anti-fungal activity in vitro; type: cell-based; conditions: 48 h, GY medium, 28° C., 2 days
Experimental: (§4) (1) Each test compound was diluted by two-fold dilution with GY medium (2% glucose and 0.4% yeast extract) containing 0.01% Tween 80 (trademark). Every diluted solution was inoculated with spore suspension (10^5-5 spores/ml) of Alternaria kikuchiana or a hyphae disk with agar (4 mm in diameter) of other fungi and incubated at 28° C. for 2 days.

[5] = tested on: Corticium rolfsii; assay: Anti-fungal activity in vitro; type: cell-based; conditions: Agroathelia rolfsii, 48 h; GY medium, 28° C., 2 days
Experimental: as §4

[6] = tested on: Diaporthe citri; assay: Anti-fungal activity in vitro; type: cell-based; conditions: 48 h, GY medium, 28° C., 2 days
Experimental: as §4

[7] = tested on: Cochiobolus sativus; assay: Anti-fungal activity in vitro; type: cell-based; conditions: 48 h; GY medium, 28° C., 2 days
Experimental: as §4

[8] = tested on: Ustilago nuda; assay: Anti-fungal activity in vitro; type: cell-based; conditions: 48 h, GY medium, 28° C., 2 days
Experimental: as §4

[9] = tested on: Vasla ceratosperma; assay: Anti-fungal activity in vitro; type: cell-based; conditions: 48 h; GY medium, 28° C., 2 days
Experimental: as §4

[10] = tested on: Pyrenophora graminea; assay: Anti-fungal activity in vitro; type: cell-based; conditions: 48 h, GY medium, 28° C., 2 days
Experimental: as §4

[11] = tested on: Alternaria kikuchiana; assay: Anti-fungal activity in vitro; type: cell-based; conditions: 48 h, GY medium, 28° C., 2 days, spore suspension
Experimental: as §4

[12] = tested on: Botrytis cinerea; assay: Control test of Botrytis rot (gray mold) of cucumber; type: in vivo
Experimental: (1) Seedlings of cucumber (Cultivar: Matsukaze) were planted in a pot of 9 cm in diameter. The first leaf was sprayed with 3 ml each of solutions containing the test compound at the concentration of 125 or 31.3 ppm and the plant was dried by the air. After inoculation of the spores of Botrytis cinerea, the plants were kept at 20°±2° C. and 90-100% humidity ((i) protective spraying). Alternatively, the spores were inoculated at first and when the leaves suffered a little (about 2 days after), the solutions of the test compounds were sprayed ((ii) curative spraying). Evaluation was practised 3 days after the inoculation. Percent disease control was calculated by the ratio of diameter of diseased area in treated and untreated plants.
as §1

[13] = tested on: Sclerotinia sclerotiorum; assay: Control test to Sclerotinia rot of cucumber; type: in vivo
From the text: (1) This test was practised in the same manner as in the above test, control test of Botrytis rot (gray mold) of cucumber, except for using the mycelium of Sclerotinia sclerotiorum as inoculm. The same as in test 2.

[14] = tested on: Cladosporium herbarum; assay: Anti-fungal activity in vitro; type: cell-based; conditions: 48 h, GY medium, 28° C., 2 days
Experimental: as §4

[15] = tested on: Puccinia coronata; assay: Control test of crown rust of oat; type: in vivo
Experimental: (1) Young oats (Cultivar: Pc38) grown in pots in a greenhouse were (i) sprayed with 10 ml each of solution of the test compounds at a prescribed concentration and after air-drying, they were inoculated with 15 mg of uredospores of Puccinia coronata per 20 pots (protective spraying) or (ii) sprayed with the test solution 3 days after inoculation of uredospores. After each plant was kept at 20°-25° C. in a greenhouse for 2 weeks, number of uredia was counted on the first leaf.

SMILES | MIC [4] [µg/mL] | MIC [5] [µg/mL] | MIC [6] [µg/mL] | MIC [7] [µg/mL] | MIC [8] [µg/mL] | MIC [9] [µg/mL] | MIC [10] [µg/mL] | MIC [11] [µg/mL] | Foliar Treatment, Curative Effect ([1]; second Table 4, 0.5 ppm) | Foliar Treatment, Protective Effect ([1]; second Table 4, 0.5 ppm) | Soil Treatment, Protective Effect ([1]; second Table 4, 0.5 ppm) | Foliar Treatment, Curative Effect ([1]; second Table 4, 2.0 ppm) | Foliar Treatment, Protective Effect ([1]; second Table 4, 2.0 ppm) | Soil Treatment, Protective Effect ([1]; second Table 4, 2.0 ppm) | Foliar Treatment, Curative Effect ([1]; second Table 4, 7.8 ppm) | Foliar Treatment, Protective Effect ([1]; second Table 4, 7.8 ppm) | Soil Treatment, Protective Effect ([1]; second Table 4, 7.8 ppm) | Foliar Treatment, Curative Effect ([1]; second Table 4, 31.3 ppm) | Foliar Treatment, Protective Effect ([1]; second Table 4, 31.3 ppm) | MIC [14] [µg/mL] | also measured
O[C@@]1(c2sc(Cl)c(Cl)c2Cl)CCCC[C@H]1n1cncn1 (relative stereo) [Compound 12, cis-1-(3,4,5-trichloro-2-thienyl)-2-(1,2,4-triazol-1-yl)cyclohexanol] | 1.56 (≈ 4.42 µM) | 1.56 (≈ 4.42 µM) | 3.13 (≈ 8.88 µM) | 3.13 (≈ 8.88 µM) | 6.25 (≈ 17.7 µM) | 3.13 (≈ 8.88 µM) | 6.25 (≈ 17.7 µM) | 25 (≈ 70.9 µM) |  |  |  |  |  |  |  |  |  |  |  |  | Protective Index, Foliar Treatment ([1]; first Table 4, 125 ppm, foliar, 14 days): 10; Protective Index, Soil Treatment ([1]; first Table 4, 125 ppm, soil, 14 days): 10; Disease Degree ([2]; 500 ppm): 0; Percent Disease Control ([2]; 500 ppm): 100%; Disease Degree [3]: 17; Percent Disease Control [3]: 83%
O[C@@]1(c2ccc(Cl)cc2)CCCCC[C@H]1n1cncn1 (relative stereo) [Compound 24, cis-1-(4-chlorophenyl)-2-(1,2,4-triazol-1-yl)cycloheptanol] | 0.2 (≈ 0.685 µM) | 50 (≈ 171 µM) | 25 (≈ 85.7 µM) | 6.25 (≈ 21.4 µM) | 1.56 (≈ 5.35 µM) |  | 12.5 (≈ 42.8 µM) | 12.5 (≈ 42.8 µM) | 10 | 5 (Disease sign is observed on the leaf in about 30%.) | 0 | 10 | 10 | 0 | 10 | 10 | 10 | 10 | 10 | 6.25 (≈ 21.4 µM) | Soil Treatment, Protective Effect ([1]; second Table 4, 31.3 ppm): 10; Percent Disease Control, Curative Spraying ([12]; Table 2, 31.3 ppm): 86%; Percent Disease Control, Protective Spraying ([12]; Table 2, 31.3 ppm): 100%; Percent Disease Control, Curative Spraying ([12]; Table 2, 125 ppm): 94%; Percent Disease Control, Protective Spraying ([12]; Table 2, 125 ppm): 100%; Percent Disease Control, Curative Spraying ([13]; 31.3 ppm): 96%; Percent Disease Control, Protective Spraying ([13]; 31.3 ppm): 100%; Percent Disease Control, Curative Spraying ([13]; 125 ppm): 97%; Percent Disease Control, Protective Spraying ([13]; 125 ppm): 100%
O[C@@]1(c2ccccc2Cl)CCCC[C@H]1n1cncn1 (relative stereo) [Compound 32] | 0.39 (≈ 1.4 µM) | 12.5 (≈ 45 µM) | 3.13 (≈ 11.3 µM) | 3.13 (≈ 11.3 µM) | 3.13 (≈ 11.3 µM) |  | 1.56 (≈ 5.62 µM) | 3.13 (≈ 11.3 µM) | 7 (Disease sign is observed on the leaf in about 20%.) | 0 | 0 | 10 | 9 | 0 | 10 | 10 | 10 | 10 | 10 | 1.56 (≈ 5.62 µM) | Soil Treatment, Protective Effect ([1]; second Table 4, 31.3 ppm): 10; Disease Degree ([2]; 31.3 ppm): 10; Percent Disease Control ([2]; 31.3 ppm): 90%; Percent Disease Control, Curative Spraying ([13]; 31.3 ppm): 86%; Percent Disease Control, Protective Spraying ([13]; 31.3 ppm): 72%; Percent Disease Control, Curative Spraying ([13]; 125 ppm): 94%; Percent Disease Control, Protective Spraying ([13]; 125 ppm): 100%
OC(c1ccc(Cl)cc1)(c1cncnc1)c1ccccc1Cl (centres unmarked) [Fenarimol, reference compound] | 3.13 (≈ 9.45 µM) | 25 (≈ 75.5 µM) | > 50 | 1.56 (≈ 4.71 µM) | 25 (≈ 75.5 µM) | 12.5 (≈ 37.7 µM) | 12.5 (≈ 37.7 µM) | 6.25 (≈ 18.9 µM) |  |  |  |  |  |  |  |  |  |  |  | > 50 | Percent Disease Control, Curative Spraying ([15]; 12.5 ppm): 75%; Percent Disease Control, Protective Spraying ([15]; 12.5 ppm): 62%; Percent Disease Control, Curative Spraying ([15]; 25 ppm): 92%; Percent Disease Control, Protective Spraying ([15]; 25 ppm): 89%; Percent Disease Control, Curative Spraying ([15]; 50 ppm): 98%; Percent Disease Control, Protective Spraying ([15]; 50 ppm): 100%
